Source: patent publication US20230067277A1, “ANALOGUES OF MYCOSPORINE-LIKE AMINO ACID AND USE THEREOF AS SUNSCREENS” (BASF SE, priority 2020, published 2023)

Key:
Assay type in all cases: physicochemical
[1] = Solubility test in cosmetic solvents and water; details: for solubility: % m/V; for precipitation visible after: addition to the respective solvent
Description: The solubility of Compounds A to D was tested, wherein the addition of Compound A and B to the respective solvent had been stopped after 50% m/V. In case of Compound C and D, a precipitation after about 1% m/V had been visible. The respective pH-values (see Table 1) had been measured of the final solution or suspension, respectively.

[2] = Specific extinction coefficient (UV/VIS spectrophotometer); details: for E (1%, 1 cm), maximum absorbance: d=1 cm, 250 nm to 500 nm
Description: The specific extinction coefficient of Compounds A to D was measured using a Perkin Elmer Lambda 650 UV/VIS Spectrophotometer. A stock solution of concentration c=1 mM of the UV-absorber was prepared in a 100 ml volumetric flask using either buffer or ethanol. Dilution steps followed in order to adjust the concentration, such that the extinction E at optical pathlength d=1 cm will be 1.0±0.5. UV spectrum was determined in a cuvette of an optical pathlength of d=1 cm at 250 nm to 500 nm. With the Beer-Lambert law one obtains the molar decadic extinction coefficient at any wavelength with: The respective specific extinction E %1.1 cm can be obtained via the following equation: […] where M=molecular weight of the UV-absorber. A di-sodium hydrogen phosphate/potassium dihydrogen phosphate buffer (ordering number 1.09439.1000) or ethanol (ordering number 1.00983.2511), each purchased from Merck was used.

[3] = Incorporation of UV filter into water phase of cosmetic formulation; details: 2.00 in Formulations 1, 2 and 4; pH 7-8
Description: Formulations 1 to 4 and a Placebo formulation were manufactured as follows. Part A and part B (see Table 3) were prepared separately and heated to 75-80° C. Under increasing stirring, part B was incorporated to part A and homogenized with Ultra Turrax for 20 sec. at 11000 rpm. The mixture was let cooled down to rt under stirring and part C was added. At rt pH 7-8 was adjusted with NaOH.

[4] = Water, addition of Compound A and B stopped after 50% m/V
[5] = cosmetic solvent Cetiol Ultimate

pH-value of the final solution or suspension ([1]; Water)	solubility [1, 4] [%]	solubility ([1]; cosmetic solvent Cetiol AB)	solubility [1, 5]	solubility ([1]; cosmetic solvent Myritol 318)	E (1%, 1 cm), maximum absorbance ([2]; buffer pH7 (phosphate buffer))	specific extinction coefficient / absorbance, comparison among Compounds A to D (FIG. 1) ([2]; FIG. 1)	precipitation visible after [1]	E (1%, 1 cm), maximum absorbance ([2]; in EtOH)	SMILES	incorporation of UV filter into the water phase in sufficiently high concentrations [3]
(pH 6)	>50.0	insoluble	insoluble	insoluble	943				CC1=C(NCCOCCO)CCC/C1=N\CCOCCO.Cl [Compound A, (E)-2-(2-hydroxyethoxy)-N-(3-((2-(2-hydroxyethoxy)ethyl)amino)-2-methylcyclohex-2-en-1-ylidene)ethan-1-aminium chloride]	could be incorporated into the water phase in sufficiently high concentrations
(pH 6)	>50.0	insoluble	insoluble	insoluble	1725	highest specific extinction coefficient			CC1=C(NCCO)CCC/C1=N\CCO.Cl [Compound B, (E)-2-hydroxy-N-(3-((2-hydroxyethyl)amino)-2-methylcyclohex-2-en-1-ylidene)ethan-1-aminium chloride]	could be incorporated into the water phase in sufficiently high concentrations
(pH 7)	<1.0	<1.2%	<1.0%	<1.0%			about 1 % m/V	737	COc1ccc(/N=C2\CCC(Nc3ccc(OC)cc3)=C2C)cc1.Cc1ccc(S(=O)(=O)O)cc1 [Compound C, (E)-4-methoxy-N-(3-((4-methoxyphenyl)amino)-2-methylcyclopent-2-en-1-ylidene)benzenaminium 4-methylbenzenesulfonate]	
(pH 7)	<1.0	<1.2%	<1.0%	<1.0%			about 1 % m/V	659	CC1=C(Nc2ccccc2Br)CC/C1=N\c1ccccc1Br.Cc1ccc(S(=O)(=O)O)cc1 [Compound D, (E)-2-bromo-N-(3-((2-bromophenyl)amino)-2-methylcyclopent-2-en-1-ylidene)benzenaminium 4-methylbenzenesulfonate]	not been possible to solve
